Target: Trypanothione reductase (UniProt P39050)
Test: Inhibition of Leishmania donovani Trypanothione reductase

Chain of Trypanothione reductase (P39050 whole entry): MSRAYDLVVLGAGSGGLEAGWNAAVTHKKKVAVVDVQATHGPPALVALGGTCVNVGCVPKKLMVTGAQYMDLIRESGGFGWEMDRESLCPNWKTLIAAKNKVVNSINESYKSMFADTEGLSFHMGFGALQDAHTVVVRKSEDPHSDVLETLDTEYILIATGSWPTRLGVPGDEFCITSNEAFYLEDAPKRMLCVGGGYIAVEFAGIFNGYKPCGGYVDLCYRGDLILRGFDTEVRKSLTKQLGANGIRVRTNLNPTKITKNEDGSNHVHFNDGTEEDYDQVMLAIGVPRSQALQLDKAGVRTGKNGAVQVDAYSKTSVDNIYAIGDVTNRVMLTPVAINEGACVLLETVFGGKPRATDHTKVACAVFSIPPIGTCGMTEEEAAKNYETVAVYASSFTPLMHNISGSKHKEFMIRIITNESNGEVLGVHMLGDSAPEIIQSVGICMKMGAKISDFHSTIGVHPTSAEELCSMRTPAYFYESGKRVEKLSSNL

IC50: 91 µM
Compound: CN(C)c1ncnc2c1C1(CCCC1)Cc1ccccc1-2 [Name not given]
